Experimental data reported in patent publication US5753483A (priority 1995, dated 1998).
Entries after “also recorded” stand apart in the source; their conditions may differ. Read-outs that look alike come from different tables or passages of the source.

What was measured:
Pyrophosphorylase [1] = target: T1, Pyrophosphorylase (Sus scrofa, UniProt F1S210); assay: Specificity of pyrophosphorylase (reverse direction); type: biochemical, pig; conditions: 5 mM, PP = 1 mM; for Relative Activity: UDP-GalNAc = 100
T1 construct: 64 and 55 kDa bands; native about 125 kDa
T1 sequence (F1S210 1-505): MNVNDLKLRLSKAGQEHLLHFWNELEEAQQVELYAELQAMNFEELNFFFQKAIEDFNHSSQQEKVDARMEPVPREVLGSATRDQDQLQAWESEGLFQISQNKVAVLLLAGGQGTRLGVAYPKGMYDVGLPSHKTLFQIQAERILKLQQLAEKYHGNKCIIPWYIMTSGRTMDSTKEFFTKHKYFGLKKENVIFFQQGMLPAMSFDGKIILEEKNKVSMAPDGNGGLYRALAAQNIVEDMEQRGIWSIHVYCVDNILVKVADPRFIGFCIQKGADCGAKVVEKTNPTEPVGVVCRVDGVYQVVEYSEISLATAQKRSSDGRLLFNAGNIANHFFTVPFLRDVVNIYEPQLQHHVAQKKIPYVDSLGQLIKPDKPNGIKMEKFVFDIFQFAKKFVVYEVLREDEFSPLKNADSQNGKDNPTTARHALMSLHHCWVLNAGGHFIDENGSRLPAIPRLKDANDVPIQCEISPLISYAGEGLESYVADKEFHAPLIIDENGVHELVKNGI
Description: (§1) When measured in the reverse direction, either a direct assay or an indirect assay could be used. […] The incubation mixtures contained the following components in a final volume of 50 μl: 5 mM sodium pyrophosphate, 250 uM UDP-[^3 H]GlcNAc (2.2 Ci/mmol), 100 mM Tris HCl buffer, pH 8.5, 2 mM MgCl2, and various amounts of enzyme at the different stages of purification. […] The suspension was vortexed vigorously for 2 minutes, and was then centrifuged in a microfuge. The supernatant liquid was removed and saved, and the charcoal was washed with 1 ml of water. The supernatant liquid from this wash was combined with the first supernatant liquid, and an aliquot was removed and counted, as a measure of the formation of GlcNAc-1-P.
(§2) For the indirect assay, a modification of the spectrophotometric method of Munch-Petersen, (1956) Acta Chim. Scand. […] The assay mixtures contained 50 mM Tris-HCl buffer, pH 7.5, 1 mM MgCl2, 0.5 mM ADP, 1 mM glucose, 0.5 mM NADP, 1 mM inorganic pyrophosphate, 2 mM UDP-HexNAc and 2.5 units each of nucleoside diphosphate kinase, hexokinase and glucose-6-P dehydrogenase.
(§3) The substrate specificity of the purified enzyme was examined in both the forward and the reverse direction.

[2] = target: T2, UDP-GlcNAc pyrophosphorylase (Sus scrofa, UniProt F1S210); assay: Photoaffinity labeling of purified pyrophosphorylase and its inhibition (FIG. 5); type: binding, pig; conditions: for labeling of enzyme subunits by probe: UV light, SDS-PAGE
T2 construct: both 64 and 55 kDa bands photolabelled
T2 sequence (F1S210 1-505): as above
Description: Enzyme was incubated with radioactive probe in the presence or absence of various inhibitors, and some of the incubations were exposed to UV light to activate the probe. Each incubation was treated with trichloroacetic acid to precipitate the protein, and the pellet was resuspended in SDS and subjected to SDS-PAGE. Radioactive proteins were detected by exposure to film. […]

Pyrophosphorylase [3] = target: T1, Pyrophosphorylase; assay: Putative inhibitors of pyrophosphorylase; type: biochemical, pig; conditions: for inhibition at 100 µM: 0.1 mM; for inhibition at 1000 µM: 1.0 mM
Description: A variety of other inhibitors were tested, including various sulfhydryl reagents and metal chelators.

[4] = system: UDP-GlcNAc pyrophosphorylase; assay: Kinetic constants, forward direction (sugar-1-P + UTP); type: biochemical, pig
Description: (§4) After an incubation of 10 minutes at 37° C., the reaction was terminated by heating the tubes in a boiling water bath for 30 seconds. The amount of product could either be determined by measuring the amount of radioactivity that bound to DE-52 (HCO3 -) after treatment of the reaction mixtures with alkaline phosphatase, or the product could be detected by TLC.

[5] = system: UDP-GlcNAc pyrophosphorylase; conditions: reverse direction
Description: as §1, §2

sheep brain enzyme = conditions: cited from earlier work
[6] = system: UDP-GlcNAc pyrophosphorylase; conditions: [^3 H]UTP + GlcNAc-1-P, 2 hours
Description: The reaction products, formed in either the forward direction (i.e., uridine diphosphate sugars), or in the reverse direction (i.e., UTP and sugar-i-P's), were isolated by chromatography on a 1×20
column of DEAE-cellulose (HCO3 -), equilibrated in 10 mM NH4 HCO3. After application of the sample, the column was washed with the same solution and the retained products were eluted with 200 ml of a linear 10 to 300 mM gradient of NH4 HCO3. Fractions were analyzed for nucleotides by measuring the absorption at 260 nm, for radioactivity by scintillation counting, and for hexosamine by the Reissig test (J. Biol. Chem., 217, 959-966, 1955) or the or the Elson Morgan assay (Wheat, R. W. (1966) Meth. Enzymol. 8, 60-78). Peak fractions were pooled and concentrated on a rotary evaporator and NH4 H CO3 was removed by evaporation in the presence of triethylamine. The triethylamine was in turn removed by evaporation in the presence of methanol.
The reaction products were identified by chromatography, either directly, or following various treatments such as digestion with phosphodiesterase or alkaline phosphatase, or acid hydrolysis. Nucleotides were identified by TLC in the following systems: PEI plates developed in 0.2M and 0.4M solutions of LiCl; cellulose plates in ethanol: 1M ammonium acetate, pH 7.3 (7:3), or silica gel plates in ethanol: 1M ammonium acetate, pH 5.0 (7:3). N-acetyl-hexosamines were released from nucleotides by mild acid hydrolysis (0.01 N HCl, 100° C., 15 minutes) and identified by chromatography on borate-treated paper in n-butanol:pyridine:water (6:4:3) as described earlier by Cardini and Leloir, (1953) Arch. Biochem. Biophys., 45, 317-324.
After deproteinization, the aqueous phase was applied to a column of DE-52 and sugar phosphates and nucleoside diphosphate sugars were separated with a gradient of NH4 HCO3, as shown in FIG. 4. […] The peak was pooled and subjected to TLC in 3 different solvent systems as described above.
The characterization of these products was also based on the products produced by phosphosdiesterase, mild acid hydrolysis and other treatments.

Pyrophosphorylase [7] = target: T1, Pyrophosphorylase; assay: Specificity of pyrophosphorylase (forward direction); type: biochemical, pig; conditions: for Activity / Relative Activity: sugar phosphate 5 mM, UT = 5 mM; for Relative Activity: GalNAc-1-P = 100
Description: as §4, §3

Pyrophosphorylase [8] = target: T1, Pyrophosphorylase; assay: Effects of metal ions on pyrophosphorylase activity; type: biochemical, pig; conditions: metal ion 1 mM
From the text: Other ions such as Fe^+++, Ca^++ and Hg^++ were ineffective.

[9] = system: UDP-GlcNAc pyrophosphorylase from brain; conditions: cited from earlier work
[10] = metal chelators, as long as sufficient Mn++ was added
[11] = at 1 mM inorganic pyrophosphate
[12] = at 1 mM UTP, read-out: apparant Km

O=C(O)[C@H]1O[C@H](OP(=O)(O)OP(=O)(O)OC[C@H]2O[C@@H](n3ccc(=O)[nH]c3=O)[C@H](O)[C@@H]2O)[C@H](O)[C@@H](O)[C@H]1O [UDP-GalCOOH]
Activity (Pyrophosphorylase [1]): 1.3 nmol/min
Relative Activity (Pyrophosphorylase [1]): 7%

O=c1ccn([C@@H]2O[C@H](COP(=O)(O)OP(=O)(O)O)[C@@H](O)[C@H]2O)c(=O)[nH]1 [UDP]
inhibition of labeling ([2]; nucleotides): very little inhibition of labeling

O=C(O)CN(CCN(CC(=O)O)CC(=O)O)CC(=O)O [EDTA]
inhibition at 100 µM (Pyrophosphorylase [3]): 5%
inhibition at 1000 µM (Pyrophosphorylase [3]): 13%
inhibition (in words) (Pyrophosphorylase [3]; [10]): did not inhibit

Nc1nc2c(ncn2[C@@H]2O[C@H](COP(=O)(O)OP(=O)(O)OP(=O)(O)O)[C@@H](O)[C@H]2O)c(=O)[nH]1 [GTP]
inhibition of labeling ([2]; nucleotides): very little inhibition of labeling

O=c1ccn([C@@H]2O[C@H](COP(=O)(O)OP(=O)(O)OP(=O)(O)O)[C@@H](O)[C@H]2O)c(=O)[nH]1 [UTP]
Vmax ([4]; UTP as substrate, at 10 mM GlcNAc-1-P): 4.8 nmol/min
Km ([4]; UTP as substrate, at 10 mM GlcNAc-1-P, read-out: Km): 2500 µM
inhibition of labeling ([2]; nucleotides): very little inhibition of labeling

O=P(O)(O)O [inorganic phosphate]
inhibition (in words) (Pyrophosphorylase [3]; even at 10 mM): nor did inorganic phosphate

CC(=O)NC1C(OP(=O)(O)OP(=O)(O)OCC2OC(n3ccc(=O)[nH]c3=O)C(O)C2O)OC(CO)C(O)C1O (stereo not shown) [UDP-GlcNAc, UDP-N-acetylglucosamine]
Km [5, 11]: 50 µM
Vmax [5, 11]: 22.2 nmol/min
inhibition of labeling ([2]; unlabeled UDP-GlcNAc 0.01 mM to 1 mM): labeling was efficiently blocked; also recorded: effectively inhibited the labeling of both subunits to about the same extent; also recorded: labeling is blocked
activity as substrate (in words) (sheep brain enzyme): most active
Activity (Pyrophosphorylase [1]): 13.0 nmol/min
Relative Activity (Pyrophosphorylase [1]): 66%
amount in UDP-GlcNAc area [6]: 7.9 µmol
radioactivity in UDP-GlcNAc area, share of total [6]: 79%

c1cnc2c(c1)ccc1cccnc12 [O-Phenanthroline, 1, 10-phenanthroline]
inhibition at 100 µM (Pyrophosphorylase [3]; read-out: Inhibition): 5%
inhibition at 1000 µM (Pyrophosphorylase [3]; read-out: Inhibition): 16%
inhibition (in words) (Pyrophosphorylase [3]; [10]): did not inhibit

NC(=O)CI [Iodoacetamide]
inhibition at 1000 µM (Pyrophosphorylase [3]): 44%

Nc1nc2c(ncn2[C@@H]2O[C@H](COP(=O)(O)OP(=O)(O)O)[C@@H](O)[C@H]2O)c(=O)[nH]1 [GDP]
inhibition of labeling ([2]; nucleotides): very little inhibition of labeling

Nc1nc2c(ncn2[C@@H]2O[C@H](COP(=O)(O)OP(=O)(O)O[C@H]3O[C@H](CO)[C@@H](O)[C@H](O)[C@@H]3O)[C@@H](O)[C@H]2O)c(=O)[nH]1 [GDP-mannose]
inhibition of labeling ([2]; even at 1 mM): None of these sugar nucleotides showed any inhibition of the labeling

O=c1ccn([C@@H]2O[C@H](COP(=O)(O)OP(=O)(O)O[C@H]3OC[C@@H](O)[C@H](O)[C@H]3O)[C@@H](O)[C@H]2O)c(=O)[nH]1 [UDP-xylose]
inhibition of labeling ([2]; even at 1 mM): None of these sugar nucleotides showed any inhibition of the labeling

O[C@H](CS)[C@H](O)CS (racemic) [Dithiothreitol]
inhibition at 100 µM (Pyrophosphorylase [3]; read-out: Inhibition): 21%
inhibition at 1000 µM (Pyrophosphorylase [3]; read-out: Inhibition): 62%

CC(=O)N[C@H]1[C@@H](OP(=O)(O)O)O[C@H](CO)[C@H](O)[C@@H]1O [GalNAc-1-P]
Vmax ([4]; at 1 mM UTP): 7.1 nmol/min
Km [4, 12]: 5500 µM
substrate preference, forward direction (Pyrophosphorylase [7]): GalNAc-1-P over GlcNAc-1-P; also recorded: prefers GalNAc-1-P slightly over GlcNAc-1-P
Activity (Pyrophosphorylase [7]): 5.28 nmol/min
Relative Activity (Pyrophosphorylase [7]): 100%

5-azido-salicylic-[^125 I]-allylamine-UDP-GlcNAc [5-azido-ASA-UDP-GlcNAc]
labeling of GlcNAc transferases by probe (GlcNAc transferases): does label the pyrophosphorylase and some GlcNAc transferases
labeling of enzyme subunits by probe [2]: both the 64 kDa and the 55 kDa subunits of the enzyme became labeled with the probe
labeling of enzyme subunits by probe ([2]; listed as [^125 I]-N3 -salicyclic acid-allylamine-UDP-GlcNAc): Both subunits became labeled by this probe and labeling was saturable with increasing concentrations of probe
labeling of enzyme subunits by probe ([2]; listed as azido-[^125 I]-salicyclic acid-allylamine-UDP-GlcNAc): they both become labeled

Nc1ncnc2c1ncn2[C@@H]1O[C@H](COP(=O)(O)OP(=O)(O)O[C@H]2O[C@H](CO)[C@@H](O)[C@H](O)[C@H]2O)[C@@H](O)[C@H]1O [ADP-Glc]
Activity (Pyrophosphorylase [1]): 0.6 nmol/min
Relative Activity (Pyrophosphorylase [1]): 3%

O=P(O)(O)OP(=O)(O)O [inorganic pyrophosphate]
Km ([5]; at 1 mM UDP-GlcNAc): 70 µM
Vmax ([5]; at 1 mM UDP-GlcNAc): 20 nmol/min

O=P(O)(O)O[C@H]1O[C@H](CO)[C@H](O)[C@H](O)[C@H]1O [Gal-1-P]
substrate preference, forward direction (Pyrophosphorylase [7]): may act as substrates but to a much lower degree
Activity (Pyrophosphorylase [7]): 0.14 nmol/min
Relative Activity (Pyrophosphorylase [7]): 3%

[Mn+2] [Mn++, manganese]
Activity (Pyrophosphorylase [8]): 4.89 nmol
Activity (Pyrophosphorylase [8]; Mn++ = 100): 100%
effectiveness as cation [9]: then Mn^++

N[C@H]1[C@@H](OP(=O)(O)O)O[C@H](CO)[C@@H](O)[C@@H]1O [GlcN-1-P]
Activity (Pyrophosphorylase [7]): 0.10 nmol/min
Relative Activity (Pyrophosphorylase [7]): 2%

O=c1ccn([C@@H]2O[C@H](COP(=O)(O)O)[C@@H](O)[C@H]2O)c(=O)[nH]1 [UMP]
inhibition of labeling ([2]; nucleotides): a small effect

O=C(O)[C@H]1O[C@H](OP(=O)(O)OP(=O)(O)OC[C@H]2O[C@@H](n3ccc(=O)[nH]c3=O)[C@H](O)[C@@H]2O)[C@H](O)[C@@H](O)[C@@H]1O [UDP-GlcCOOH, UDP-glucuronic acid]
inhibition of labeling ([2]; even at 1 mM): None of these sugar nucleotides showed any inhibition of the labeling
Activity (Pyrophosphorylase [1]): 1.4 nmol/min
Relative Activity (Pyrophosphorylase [1]): 7%

O=P(O)(O)O[C@H]1O[C@H](CO)[C@@H](O)[C@H](O)[C@H]1O [Glc-1-P, glucose-1-P]
Vmax ([4]; at 1 mM UTP): 1.7 nmol/min
Km [4, 12]: 66600 µM
substrate preference, forward direction (Pyrophosphorylase [7]): may act as substrates but to a much lower degree
Activity (Pyrophosphorylase [7]): 0.20 nmol/min
Relative Activity (Pyrophosphorylase [7]): 4%

Nc1ncnc2c1ncn2[C@@H]1O[C@H](COP(=O)(O)OP(=O)(O)OP(=O)(O)O)[C@@H](O)[C@H]1O [ATP]
inhibition of labeling ([2]; nucleotides): very little inhibition of labeling

O=C(O)CN(CCOCCOCCN(CC(=O)O)CC(=O)O)CC(=O)O [EGTA]
inhibition at 100 µM (Pyrophosphorylase [3]; read-out: Inhibition): 8%
inhibition at 1000 µM (Pyrophosphorylase [3]; read-out: Inhibition): 13%
inhibition (in words) (Pyrophosphorylase [3]; [10]): did not inhibit

CC(=O)N[C@H]1[C@@H](OP(=O)(O)O)O[C@H](CO)[C@@H](O)[C@@H]1O [GlcNAc-1-P]
Vmax ([4]; at 1 mM UTP): 3.1 nmol/min
Km [4, 12]: 2000 µM
Activity (Pyrophosphorylase [7]): 4.83 nmol/min
Relative Activity (Pyrophosphorylase [7]): 91%

N[C@H]1C(OP(=O)(O)O)O[C@H](CO)[C@H](O)[C@@H]1O (stereo partly shown) [GalN-1-P]
Activity (Pyrophosphorylase [7]): 0 nmol/min

CCN1C(=O)C=CC1=O [N-ethylmaleimide]
inhibition at 10 µM (Pyrophosphorylase [3]; 0.01 mM): 3%
inhibition at 100 µM (Pyrophosphorylase [3]): 46%
inhibition at 1000 µM (Pyrophosphorylase [3]): 72%
